Reference: patent US9902766B2, “Antibodies to endoplasmin and their use” (University of Pittsburgh—Of The Commonwealth System of …, priority 2010, dated 2018)
Where two headings read alike, the source gives them in different places.

Test system: MIAPaCa-2 cancer initiating cells (ALDHbright cells)
Test: cancer initiating cell in vitro proliferation, ALDEFLUOR flow cytometry
Assay type: cell-based
Details: Homo sapiens, read-out: growth inhibition of ALDHbright cells
Description: FIG. 19. […] Human pancreatic adenocarcinoma MIAPaCa-2 cells were incubated with mAb W9 (25 μg/ml), for 48 hrs at 37° C. Cells were then harvested and stained with ALDEFLUOR® (TEST). Cells stained with ALDEFLUOR®+DAEB were used as a reference (CONTROL). Human Ig (HIg) were used as a control.
FIG. 26. […] Human pancreatic adenocarcinoma MIAPaCa-2 cells were incubated with mAb W9 (25 μg/ml), cyclopamine (20 μM), and 5-FU (10 μM) for 48 hrs at 37° C. Cells were then stained with ALDEFLUOR with or without the DEAB inhibitor to identify ALDH^bright cells. The anti-HLA class I mAb TP25.99 was used as a control.
FIGS. 28A and 28B. […] Human pancreatic adenocarcinoma MIAPaCa-2 cells (4×10^5/ml) were irradiated at the dose of 20Gy (panel A.) and incubated with mAb W9 (10 μg/ml) and cyclopamine (20 μM) for 72 hrs at 37° C. Cells were then stained with ALDEFLUOR with or without the DEAB inhibitor to identify ALDH^bright cells. Non-irradiated cell were used as a control (panel B.).

Row | Structure (SMILES) | inhibition at 10 µM (MIA PaCa-2, MIAPaCa-2, mAb W9 25 μg/ml, cyclopamine 20 μM, 5-FU 10 μM, 48 hrs) [%] | inhibition at 20 µM (MIA PaCa-2, 48 h) [%] | inhibition at 20 µM (MIA PaCa-2, 72 h) [%]
1 | O=c1[nH]cc(F)c(=O)[nH]1 [5-FU, 5-fluorouracil, reference compound] | 20 | – | –
2 | CC1=C2C[C@H]3[C@@H](CC=C4C[C@@H](O)CC[C@@]43C)[C@@H]2CC[C@]12O[C@@H]1C[C@H](C)CN[C@H]1[C@H]2C [cyclopamine, reference compound] | – | 50 | ~50
